Measured values from paper PMC8037586, “Synthesis and Enantioselective Pharmacokinetic/Pharmacodynamic Analysis of New CNS-Active Sulfamoylphenyl Carbamate Derivatives” (International Journal of Molecular Sciences, 2021).
Read-outs that look alike come from different tables or passages of the source.

Legend:
[1] = target: T1, human carbonic anhydrase (CA) isoform IV (Homo sapiens, UniProt P22748); parameters: method as in PMID 28275953, PMID 31124389; details: previously reported data; cited from earlier work
[2] = target: T2, human carbonic anhydrase (CA) isoform I (Homo sapiens, UniProt P00915); parameters: method as in PMID 28275953, PMID 31124389; details: previously reported data; cited from earlier work
[3] = target: T3, human carbonic anhydrase (CA) isoform II (Homo sapiens, UniProt P00918); parameters: method as in PMID 28275953, PMID 31124389; details: previously reported data; cited from earlier work
[4] = target: T4, human carbonic anhydrase (CA) isoform VII (Homo sapiens, UniProt P43166); parameters: method as in PMID 28275953, PMID 31124389; details: previously reported data; cited from earlier work
[5] = test system: rat maximal electroshock test (MES); parameters: method as in PMID 28275953, PMID 31124389; details: cited from earlier work
rats [6] = test system: rats; parameters: method as in PMID 28275953, PMID 31124389; details: cited from earlier work
rats [7] = experiment: Minimal neurotoxicity (TD50) in rats; format: in vivo, rat; details: rats dosed p.o.
From the text: (§1) Table 3 Quantitative anticonvulsant and minimal neurotoxicity data (ED50 and TD50 values) and protective indexes (PI) of […] (MBPC) and 3-methylpentyl(4-sulfamoylphenyl)carbamate (MSPC). in rats dosed p.o. or i.p. ^b. | column: Neurotoxicity-TD50 (mg/kg) [95% CI] ^a; Protective Index (PI = TD50/ED50)

[8] = Minimal neurotoxicity (TD50) in rats; format: in vivo, rat; details: rat, in vivo, po; rats dosed p.o.; read-out: Neurotoxicity-TD50 [95% CI]
From the text: as §1

[9] = Pharmacokinetics from brain levels after i.p. administration to rats; format: in vivo, rat; details: i.p. 80 mg/kg; for AUCinf / AUC(0-inf) / CL/F / Cmax / MRT / Tmax / half-life / Vd/F: brain levels; for AUCinf / AUC(0-inf): 80 mg/kg; for AUC(0-inf) / Kp / CL/F / Cmax / MRT / Tmax / half-life / Vd/F: male, Sprague Dawley, rat, ip; for Kp: AUCbrain/AUCplasma, read-out: Brain-to-plasma (AUCinf) ratio; for Vd/F: read-out: Vss/F
Method: (§2) The pharmacokinetics (PK) of racemic-MBPC and its two individual enantiomers were studied following i.p. administration (80 mg/kg) to male Sprague Dawley rats weighing approximately 200–250 g, and their major PK parameters were estimated. The PK experiments were approved by the Ethical Committee of the Hebrew University’s Faculty of Medicine. The dose was administered to rats in multisol that is a mixture of propylene glycol, alcohol (EtOH), and water for injection at a ratio of 8:1:1. The study details were as described previously. Plasma and brain levels of racemic-MBPC and its individual enantiomers were monitored at 20, 40, 60, 90, 120, 160, 180, 200, 220, and 260 min after dosing. Two rats were sacrificed at each time point.
(§3) Plasma and brain concentrations of each compound were quantified by an HPLC assay. The HPLC analysis was performed on a system (2695 Separation Module; Waters, Milford, MA, USA) with a photodiode array UV detector (2996 PDA Detector; Waters, Milford, MA, USA) conditioned as follows: Kinetex, 5 u EVO C18 100 A, 1504.6-mm column (PhenomenexVR, Torrance, CA, USA). Linear gradients (5–95% acetonitrile content) with H2O (0.1% formic acid) and acetonitrile were used as the eluents with a flow rate of 1 mL/min at 20 °C. The compounds and the internal standard were detected at 250 nm. Plasma and brain concentrations of MBPC and its two individual enantiomers were quantified as previously described, [29].
(§4) The PK parameters of each compound were calculated by non-compartmental analysis based on statistical moment theory using the PK software Phoenix Winnonlin Tripos L.P. (Pharsight Co., Mountain View, CA, USA) as previously described.

[10] = target: T2, human carbonic anhydrase (CA) isoform I; experiment: Stopped-flow CO2 hydrase assay, CA I; format: biochemical; details: for Ki: means ± SEM of 3 different assays
[11] = Pharmacokinetics from plasma levels after i.p. administration to rats; format: in vivo, rat; details: i.p. 80 mg/kg; for CL/F / Cmax / MRT / Tmax / half-life / Vd/F / AUC(0-inf): male, Sprague Dawley, rat, ip; for Vd/F: read-out: Vss/F; for AUC(0-inf): plasma
Method: as §2, §3, §4

[12] = target: T4, human carbonic anhydrase (CA) isoform VII; experiment: Stopped-flow CO2 hydrase assay, CA VII; format: biochemical; details: for Ki: means ± SEM of 3 different assays
[13] = test system: rat maximal electroshock test (MES); experiment: Rat maximal electroshock (MES) anticonvulsant test; format: in vivo; details: po, rats dosed p.o., read-out: MES-ED50 [95% CI]
Method: The experiments with the MES model were conducted in male Sprague Dawley rats weighing 100–120 g (Charles River Laboratories, Wilmington, MA, USA) as previously described. Eight rats were tested per dose in the dose–response curve in order to determine the ED50 value of each compound. The experiments were approved by the Ethical Committee of the NIH-ETSP program where the anticonvulsant activity was tested.

[14] = target: T3, human carbonic anhydrase (CA) isoform II; experiment: Stopped-flow CO2 hydrase assay, CA II; format: biochemical; details: for Ki: means ± SEM of 3 different assays
[15] = Enantiostability: extraction from rat plasma and optical rotation measurement; format: in vitro ADME; details: extracted from rat plasma; specific optical rotation compared to initial value
From the text: MBPC was not included in such a series. […] The slightly better BPR of (S)-MBPC may contribute to its better rat anticonvulsant ED50 value. MBPC’s BPR values were better than that of (S)-MSPC but lower than those of racemic- and (R)-MSPC [10]. While (R)-MSPC has lower plasma and brain exposure compared to (S)-MSPC, the two MBPC enantiomers had similar brain permeability, with a slightly better BPR value for (S)-MBPC.

[16] = target: T1, human carbonic anhydrase (CA) isoform IV; experiment: Stopped-flow CO2 hydrase assay, CA IV; format: biochemical; details: means ± SEM of 3 different assays

T1 sequence (P22748 19-312): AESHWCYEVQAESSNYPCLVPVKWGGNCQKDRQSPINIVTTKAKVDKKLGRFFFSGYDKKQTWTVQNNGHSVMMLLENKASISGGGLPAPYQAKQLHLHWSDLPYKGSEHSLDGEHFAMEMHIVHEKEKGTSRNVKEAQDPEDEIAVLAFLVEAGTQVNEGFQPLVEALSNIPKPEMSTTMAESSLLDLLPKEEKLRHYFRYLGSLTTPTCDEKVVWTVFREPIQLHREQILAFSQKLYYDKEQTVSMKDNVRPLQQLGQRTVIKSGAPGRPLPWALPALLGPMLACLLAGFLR
T4 sequence (P43166 whole entry, canonical isoform): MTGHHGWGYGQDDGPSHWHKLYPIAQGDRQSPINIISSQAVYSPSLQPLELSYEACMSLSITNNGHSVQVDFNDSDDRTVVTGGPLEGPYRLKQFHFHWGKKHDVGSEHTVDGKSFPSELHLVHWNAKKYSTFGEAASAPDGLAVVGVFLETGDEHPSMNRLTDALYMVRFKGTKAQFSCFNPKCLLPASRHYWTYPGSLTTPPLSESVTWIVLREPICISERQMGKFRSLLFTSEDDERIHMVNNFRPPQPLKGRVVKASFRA
T2 sequence (P00915 whole entry, canonical isoform): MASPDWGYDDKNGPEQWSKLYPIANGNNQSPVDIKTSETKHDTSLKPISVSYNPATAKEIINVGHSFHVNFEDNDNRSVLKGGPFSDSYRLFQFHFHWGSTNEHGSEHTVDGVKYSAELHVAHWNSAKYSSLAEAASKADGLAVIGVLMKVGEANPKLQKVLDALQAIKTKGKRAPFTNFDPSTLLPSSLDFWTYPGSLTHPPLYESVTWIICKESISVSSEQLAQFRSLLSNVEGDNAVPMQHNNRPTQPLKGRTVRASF

Compound	Ki [1] [nM]	Ki [2] [nM]	Ki [3] [nM]	Ki [4] [nM]	MES-ED50 [95% CI] ([5]; rats dosed i.p.)	MES-ED50 [95% CI] ([5]; rats dosed p.o.)	Neurotoxicity-TD50 [95% CI] (rats [6]; rats dosed i.p.)	Protective Index (PI = TD50/ED50) (rats [6]; rats dosed i.p.)	Protective Index (PI = TD50/ED50) (rats [7])	TD50 [8] [mg/kg]	AUCinf [9] [ng·h/mL]	AUC(0-inf) ([9]; brain) [ng·h/mL]	CL/F [9] [mL/min/kg]	Cmax [9] [ng/mL]	MRT [9] [h]	Tmax [9] [h]	half-life [9] [h]	Vd/F [9] [L/kg]	Ki [10] [nM]	CL/F ([11]; plasma levels) [mL/min/kg]	further results
CCC(C)CCOC(=O)Nc1ccc(S(N)(=O)=O)cc1 (racemic) [Racemic-MSPC, 3-methylpentyl(4-sulfamoylphenyl)carbamate]	750 ± 42	77 ± 4.7	7.6 ± 0.5	351 ± 26	13 [8–22] mg/kg	28 [18–35] mg/kg	>250 mg/kg	>19													Neurotoxicity-TD50 [95% CI] (rats [6]; rats dosed p.o.): >500 mg/kg; Protective Index (PI = TD50/ED50) (rats [6]; rats dosed p.o.): >18
CC[C@H](C)CCOC(=O)Nc1ccc(S(N)(=O)=O)cc1 [(S)-MSPC]	593 ± 42	130 ± 8	20.3 ± 1.4	744 ± 36	43 [33–52] mg/kg	24 [17–29] mg/kg	149 [121–157] mg/kg	3.5													
CC[C@@H](C)OC(=O)Nc1ccc(S(N)(=O)=O)cc1 [(R)-MBPC]									>13	> 500	30400	30000	43.3	11400	2.1	2.7	0.5	5.4	203 ± 13	55	Kp ([9]; brain): 1.27; higher clearance than its enantiomer ([11]; (R)- vs (S)-enantiomer): 65%; Cmax ([11]; plasma levels): 10700 ng/mL; MRT ([11]; plasma levels): 2 h; Tmax ([11]; plasma levels): 1.7 h; half-life ([11]; plasma levels): 0.6 h; Vd/F ([11]; plasma levels): 6.7 L/kg; AUC(0-inf) ([11]; 80 mg/kg, plasma levels): 24000 ng·h/mL; Ki [12]: 197 ± 14 nM; ED50 [13]: 39 mg/kg; Ki [14]: 7.1 ± 0.4 nM; effectiveness relative to its (S)-enantiomer against hCA II ([14]; ratio of KI values): five times more effective; enantiostability (chiral inversion) [15]: no chiral inversion was observed; Ki [16]: 522 ± 26 nM
CC[C@H](C)OC(=O)Nc1ccc(S(N)(=O)=O)cc1 [(S)-MBPC]									>11	> 200	51500	52000	26.7	15200	4.2	1.66	0.9	5	71.8 ± 6.5	33.3	Kp ([9]; brain): 1.32; times more effective than the (R)-enantiomer against hCA I ([10]; ratio of KI values): 2.9 times; Cmax ([11]; plasma levels): 12700 ng/mL; MRT ([11]; plasma levels): 2.7 h; Tmax ([11]; plasma levels): 1 h; half-life ([11]; plasma levels): 1.2 h; Vd/F ([11]; plasma levels): 5.7 L/kg; AUC(0-inf) ([11]; 80 mg/kg, plasma levels): 40000 ng·h/mL; AUCinf ([11]; plasma levels, 80 mg/kg): 39600 ng·h/mL; Ki [12]: 53.3 ± 2.9 nM; times more effective than the (R)-enantiomer against hCA VII ([12]; ratio of KI values): 3.7 times; ED50 [13]: 19 mg/kg; Ki [14]: 34.9 ± 1.4 nM; enantiostability (chiral inversion) [15]: no chiral inversion was observed; Ki [16]: 249 ± 13 nM
CC[C@@H](C)CCOC(=O)Nc1ccc(S(N)(=O)=O)cc1 [(R)-MSPC]	810 ± 55	34.1 ± 2.5	3.3 ± 0.2	170 ± 9	39 [31–44] mg/kg	30 [22–37] mg/kg	134 [108–158] mg/kg	3.4													
CCC(C)OC(=O)Nc1ccc(S(N)(=O)=O)cc1 (racemic) [Racemic-MBPC]									>20	> 500	47800	48000	28.3	16500	2	1.33	0.7	3.4	97.1 ± 5.3	41.7	Kp ([9]; brain/plasma): 1.49; Cmax ([11]; plasma levels): 15300 ng/mL; MRT ([11]; plasma levels): 1.7 h; Tmax ([11]; plasma levels): 0.33 h; half-life ([11]; plasma levels): 0.5 h; Vd/F ([11]; plasma levels): 4.3 L/kg; AUC(0-inf) ([11]; 80 mg/kg, plasma levels): 32000 ng·h/mL; Ki [12]: 121 ± 8 nM; ED50 [13]: 25 mg/kg; Ki [14]: 20.2 ± 1.5 nM; Ki [16]: 432 ± 28 nM
